Literature values as cited in patent publication US20090137457A1, “Pyrimidinedione derivatives” (CoNCERT Pharmaceuticals, Inc., priority 2007, published 2009).

Conditions: Phase I and II clinical trials; Christopher R et al., ADA 2007 (Abs 0495-P)

For `Cn1c(=O)cc(N2CCC[C@@H](N)C2)n(Cc2ccccc2C#N)c1=O` [Alogliptin], the “tolerability in clinical trials” value is listed as “generally well tolerated”.
